Experimental data from patent US9868766B2, “Peptides as oxytocin agonists” (Hoffmann-La Roche Inc., priority 2012, dated 2018).
Positions of bridges follow the written chain, without caps; N, C: chain ends. Non-standard residues stand in square brackets, D forms with d. Residues, ends and D or L forms follow the SMILES beside them. Phe(4-NH2) = Nc1ccc(C[C@H](N)C(=O)O)cc1; αMeL = CC(C)C[C@](C)(N)C(=O)O; Orn = NCCC[C@H](N)C(=O)O; Aze = O=C(O)[C@@H]1CCN1; Dap = NC[C@H](N)C(=O)O; Sar = CNCC(=O)O

Tests used:
Type in all cases: cell-based
[1] = molecular target: T1, human Oxytocin (OTR) receptor (Homo sapiens, UniProt P30559); assay: Calcium flux assay (FLIPR), agonist mode, CHO cells expressing human OTR; details: for EC50: CHO cells stably expressing human OTR, calcium flux, read-out: hOT EC50; for hOT efficacy (%) / Emax: maximum response normalized to endogenous full agonist = 100%; for Emax: CHO, read-out: hOT efficacy (%)
T1 construct: expressed in transfected cells
T1 sequence (P30559 1-389): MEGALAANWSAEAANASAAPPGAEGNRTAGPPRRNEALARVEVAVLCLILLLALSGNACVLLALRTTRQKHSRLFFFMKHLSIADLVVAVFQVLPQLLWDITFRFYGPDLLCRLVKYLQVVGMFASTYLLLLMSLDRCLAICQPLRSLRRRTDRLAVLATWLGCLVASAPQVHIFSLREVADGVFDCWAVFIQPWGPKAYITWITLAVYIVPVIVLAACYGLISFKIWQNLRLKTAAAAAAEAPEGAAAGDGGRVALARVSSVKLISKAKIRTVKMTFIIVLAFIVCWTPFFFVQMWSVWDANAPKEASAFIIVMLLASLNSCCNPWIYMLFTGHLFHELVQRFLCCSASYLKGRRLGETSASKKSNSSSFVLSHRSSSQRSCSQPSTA
Description: (§1) Chines Hamster Ovary (CHO) cells were transfected with expression plasmids encoding either the human V1a, the human Oxytocin (OTR) or the humanV2 receptor, the later in combination with the chimeric Gqs5 G protein to redirect the signal to Calcium flux. Stable cells were cloned by limiting dilution to yield monoclonal cell lines expressing either human V1a, human V2+Gqs5 or human OTR receptors and selected based on functional responses detected on a fluorometric imaging plate reader (FLIPR) detecting Calcium flux in the cell after receptor activation.
On the afternoon before the assay, cells were plated at a density of 50,000 cells/well into black 96 well plates with clear bottoms to allow cell inspection and fluorescence measurements from the bottom of each well. The density of cells was sufficient to yield a confluent monolayer the next day. Hanks balanced salt solution, without phenol red, containing 20 mM HEPES (pH 7.3) and 2.5 mM probenecid (assay buffer) was prepared fresh for each experiment. Compound dilutions were made using a Beckman Biomek 2000 laboratory automation workstation, in assay buffer containing 1% DMSO. The dye-loading buffer consisted of a final concentration of 2 μM Fluo-4-AM (dissolved in DMSO and pluronic acid) in assay buffer. […] Once dye-loaded, the cells were washed thoroughly on an Embla cell washer with the assay buffer to remove any unincorporated dye. Exactly 100 μl assay buffer was left in each well.
Each 96 well plate containing dye-loaded cells was placed into the FLIPR machine and the laser intensity set to a suitable level to detect low basal fluorescence. To test compounds as agonists, 25 μl diluted compound was added to the plate 10 seconds into the fluorescent measurements and fluorescent response was recorded for 5 minutes. The fluorescence data was normalized to the endogenous full agonist dose-response set at 100% for the maximum response and 0% for the minimum. […] The concentration of agonist that produced a half-maximal response is represented by the EC50 value, the logarithm of which yielded the pEC50 value.

human V1a receptor = molecular target: T2, human V1a receptor (Homo sapiens, UniProt P37288); assay: Calcium flux assay (FLIPR), agonist mode, CHO cells expressing human V1a; details: for EC50: CHO cells stably expressing human V1a, calcium flux, read-out: hV1a EC50; for hV1a efficacy (%): maximum response normalized to endogenous full agonist = 100%
T2 construct: expressed in transfected cells
T2 sequence (P37288 whole entry): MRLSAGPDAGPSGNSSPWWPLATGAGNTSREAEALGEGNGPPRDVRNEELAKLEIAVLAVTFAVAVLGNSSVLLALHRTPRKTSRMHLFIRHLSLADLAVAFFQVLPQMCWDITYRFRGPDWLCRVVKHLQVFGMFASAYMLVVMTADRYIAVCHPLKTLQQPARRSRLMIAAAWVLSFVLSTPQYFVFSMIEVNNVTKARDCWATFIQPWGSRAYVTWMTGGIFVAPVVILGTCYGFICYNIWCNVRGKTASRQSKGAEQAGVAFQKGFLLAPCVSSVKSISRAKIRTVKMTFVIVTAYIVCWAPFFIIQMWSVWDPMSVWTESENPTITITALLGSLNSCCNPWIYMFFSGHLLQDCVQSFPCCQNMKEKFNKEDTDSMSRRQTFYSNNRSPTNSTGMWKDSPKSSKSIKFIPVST
Description: as §1, with “activation. The stable cell lines were grown in F-12 K Nutrient Mixture (Kaighns Modification), containing 10% foetal bovine serum (FBS), 1% penicillin-streptomycin, 1% L-glutamate, 200 ug/ml Geneticin at 37° C. in a 10% CO2 incubator at 95% humidity.” for “activation.”
(§2) On the afternoon before the assay, cells were plated at a density of 50,000 cells/well into black 96 well plates with clear bottoms to allow cell inspection and fluorescence measurements from the bottom of each well. The density of cells was sufficient to yield a confluent monolayer the next day. Hanks balanced salt solution, without phenol red, containing 20 mM HEPES (pH 7.3) and 2.5 mM probenecid (assay buffer) was prepared fresh for each experiment. Compound dilutions were made using a Beckman Biomek 2000 laboratory automation workstation, in assay buffer containing 1% DMSO. The dye-loading buffer consisted of a final concentration of 2 μM Fluo-4-AM (dissolved in DMSO and pluronic acid) in assay buffer. The existing culture media was removed from the wells and 100 μl of the dye-loading buffer was added to each well and incubated for approximately 60 min at 37° C. in a 5% CO2 incubator at 95% humidity. Once dye-loaded, the cells were washed thoroughly on an Embla cell washer with the assay buffer to remove any unincorporated dye. Exactly 100 μl assay buffer was left in each well.
(§3) Each 96 well plate containing dye-loaded cells was placed into the FLIPR machine and the laser intensity set to a suitable level to detect low basal fluorescence. To test compounds as agonists, 25 μl diluted compound was added to the plate 10 seconds into the fluorescent measurements and fluorescent response was recorded for 5 minutes. The fluorescence data was normalized to the endogenous full agonist dose-response set at 100% for the maximum response and 0% for the minimum. Each agonist concentration-response curve was constructed using a four parameter logistic equation with Microsoft Excel XLFit as follows: Y=Minimum+((Maximum−Minimum)/(1+10^(Log EC50-X)nH)), where y is the % normalized fluorescence, minimum is the minimum y, maximum is the maximum y, log EC50 is the log10 concentration which produces 50% of the maximum induced fluorescence, x is the log10 of the concentration of the agonist compound and H is the slope of the curve (the Hill Coefficient). The maximum value gives the efficacy of the agonist test compound in percentage. The concentration of agonist that produced a half-maximal response is represented by the EC50 value, the logarithm of which yielded the pEC50 value.

human V2 receptor = molecular target: T3, human V2 receptor (Homo sapiens, UniProt P30518); assay: Calcium flux assay (FLIPR), agonist mode, CHO cells expressing human V2 + Gqs5; details: CHO; maximum response normalized to endogenous full agonist = 100%; read-out: hV2 efficacy (%)
T3 construct: expressed in transfected cells
T3 sequence (P30518 whole entry): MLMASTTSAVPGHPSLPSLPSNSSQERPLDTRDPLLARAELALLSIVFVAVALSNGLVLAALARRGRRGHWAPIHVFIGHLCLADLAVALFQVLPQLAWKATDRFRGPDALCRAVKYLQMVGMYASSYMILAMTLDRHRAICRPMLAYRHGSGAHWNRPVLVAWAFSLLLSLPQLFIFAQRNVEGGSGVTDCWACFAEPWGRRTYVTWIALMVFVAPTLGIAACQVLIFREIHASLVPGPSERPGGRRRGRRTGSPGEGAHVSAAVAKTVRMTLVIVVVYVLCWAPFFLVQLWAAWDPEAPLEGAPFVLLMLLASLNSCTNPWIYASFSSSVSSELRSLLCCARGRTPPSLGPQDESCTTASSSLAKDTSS
Description: as §1, with “activation. The stable cell lines were grown in F-12 K Nutrient Mixture (Kaighns Modification), containing 10% foetal bovine serum (FBS), 1% penicillin-streptomycin, 1% L-glutamate, 200 ug/ml Geneticin at 37° C. in a 10% CO2 incubator at 95% humidity.” for “activation.”
as §2, §3

EC50 [1] [nM] | hOT efficacy (%) [1] [%] | EC50 (human V1a receptor) [nM] | hV1a efficacy (%) (human V1a receptor) | Emax [1] [%] | Emax (human V2 receptor) [%] | Structure (SMILES)
52 | 102 | > 12000 |  |  |  | CC[C@H](C)[C@@H]1NC(=O)[C@H](Cc2ccc(O)cc2)NC(=O)CNC(=O)CC[C@@H](C(=O)N2CCC[C@H]2C(=O)N[C@H](CC(C)C)C(=O)NCC(N)=O)NC(=O)[C@H](CC(N)=O)NC(=O)[C@H](CCC(N)=O)NC1=O [Example 15] (GYIQNEP[dL]G-NH2; lactam N-6)
17 | 91 | > 2700 |  |  |  | CC[C@H](C)[C@@H]1NC(=O)[C@H](Cc2ccc(N)cc2)NC(=O)CNC(=O)CC[C@@H](C(=O)N2CCC[C@H]2C(=O)N[C@@H](CC(C)C)C(=O)NCC(N)=O)NC(=O)[C@H](CC(N)=O)NC(=O)[C@H](CCC(N)=O)NC1=O [Example 10] (G[Phe(4-NH2)]IQNEPLG-NH2; lactam N-6)
24 | 91 | > 12000 |  |  |  | CC[C@H](C)[C@@H]1NC(=O)[C@H](Cc2ccc(O)cc2)NC(=O)CNC(=O)CC[C@@H](C(=O)N2CCC[C@H]2C(=O)N[C@@H](C)C(=O)NCC(N)=O)NC(=O)[C@H](CC(N)=O)NC(=O)[C@H](CCC(N)=O)NC1=O [Example 18] (GYIQNEPAG-NH2; lactam N-6)
1.5 |  | 127 | 33 | 122 |  | CC[C@H](C)[C@@H]1NC(=O)[C@H](Cc2ccc(O)cc2)NC(=O)CNC(=O)CC[C@@H](C(=O)N2CCC[C@H]2C(=O)N[C@H](C(=O)NCC(N)=O)C(C)C)NC(=O)[C@H](CC(N)=O)NC(=O)[C@H](CCC(N)=O)NC1=O [Example 19] (GYIQNEPVG-NH2; lactam N-6)
3.6 |  | > 27000 |  | 99 |  | CC[C@H](C)[C@@H]1NC(=O)[C@H](Cc2ccc(O)cc2)NC(=O)CNC(=O)CC[C@@H](C(=O)N2CC[C@H]2C(=O)N[C@@H](CC(C)C)C(=O)NCC(N)=O)NC(=O)[C@H](CC(N)=O)NC(=O)[C@H](CCC(N)=O)NC1=O [Example 50] (GYIQNE[Aze]LG-NH2; lactam N-6)

Further lines, the compound ahead of its results:

Structure (SMILES) | EC50 [1] [nM] | hOT efficacy (%) [1] [%] | EC50 (human V1a receptor) [nM] | hV1a efficacy (%) (human V1a receptor) | Emax [1] [%] | Emax (human V2 receptor) [%]
CC[C@H](C)[C@@H]1NC(=O)[C@H](Cc2ccc(O)cc2)NC(=O)CNC(=O)CC[C@@H](C(=O)N[C@@H](C)C(=O)N[C@@H](CC(C)C)C(=O)NCC(N)=O)NC(=O)[C@H](CC(N)=O)NC(=O)[C@H](CCC(N)=O)NC1=O [Example 17] (GYIQNEALG-NH2; lactam N-6) | 45 | 92 | > 12000 |  |  | 
CC[C@H](C)[C@@H]1NC(=O)[C@H](Cc2ccc(O)cc2)NC(=O)CNC(=O)CC[C@@H](C(=O)N2CCC[C@H]2C(=O)N[C@@H](CCCCN)C(=O)NCC(N)=O)NC(=O)[C@H](CC(N)=O)NC(=O)[C@H](CCC(N)=O)NC1=O [Example 21] (GYIQNEPKG-NH2; lactam N-6) | 12 | 105 | 32 | 55 |  | 
CC[C@H](C)[C@@H]1NC(=O)[C@H](Cc2ccc(O)cc2)NC(=O)CNC(=O)CC[C@@H](C(=O)N2CCC[C@H]2C(=O)N[C@@H](CC(C)C)C(=O)NCC(N)=O)NC(=O)[C@H](CC(N)=O)NC(=O)[C@H](CCCN)NC1=O [Example 20] (GYI[Orn]NEPLG-NH2; lactam N-6) | 40 |  | > 12000 |  |  | 
CC[C@H](C)[C@@H]1NC(=O)[C@H](Cc2ccc(O)cc2)NC(=O)CNC(=O)CC[C@@H](C(=O)N2CCC[C@H]2C(=O)N[C@@H](Cc2ccc(N)cc2)C(=O)NCC(N)=O)NC(=O)[C@H](CC(N)=O)NC(=O)[C@H](CCC(N)=O)NC1=O [Example 11] (GYIQNEP[Phe(4-NH2)]G-NH2; lactam N-6) | 11 | 94 | > 27000 |  |  | 
CC[C@H](C)[C@@H]1NC(=O)[C@H](Cc2ccc(O)cc2)NC(=O)CNC(=O)CC[C@@H](C(=O)N(C)CC(=O)N[C@@](C)(CC(C)C)C(=O)NCC(N)=O)NC(=O)[C@H](CC(N)=O)NC(=O)[C@H](CCC(N)=O)NC1=O [Example 51] (GYIQNE[Sar][αMeL]G-NH2; lactam N-6) | 13 | 97 | > 27000 |  |  | 
CC[C@H](C)[C@@H]1NC(=O)[C@H](Cc2ccc(O)cc2)NC(=O)CNC(=O)CC[C@@H](C(=O)N(C)CC(=O)N[C@@H](CCSC)C(=O)NCC(N)=O)NC(=O)[C@H](CC(N)=O)NC(=O)[C@H](CCC(N)=O)NC1=O [Example 35] (GYIQNE[Sar]MG-NH2; lactam N-6) |  |  |  |  | 111 | 104
CC[C@H](C)[C@@H]1NC(=O)[C@H](Cc2ccc(O)cc2)NC(=O)CNC(=O)CC[C@@H](C(=O)NCC(=O)N[C@@H](CC(C)C)C(=O)NCC(N)=O)NC(=O)[C@H](CC(N)=O)NC(=O)[C@H](CCC(N)=O)NC1=O [Example 6] (GYIQNEGLG-NH2; lactam N-6) | 11 | 95 | > 27000 |  |  | 
CC[C@H](C)[C@@H]1NC(=O)[C@H](Cc2ccc(O)cc2)NC(=O)CNC(=O)CC[C@@H](C(=O)N[C@@H](C)C(=O)N[C@@H](C)C(=O)NCC(N)=O)NC(=O)[C@H](CC(N)=O)NC(=O)[C@H](CCC(N)=O)NC1=O [Example 16] (GYIQNEAAG-NH2; lactam N-6) | 30 | 105 | > 12000 |  |  | 
CC[C@H](C)[C@@H]1NC(=O)[C@H](Cc2ccc(O)cc2)NC(=O)CNC(=O)CC[C@@H](C(=O)N(C)CC(=O)N[C@@H](CN)C(=O)NCC(N)=O)NC(=O)[C@H](CC(N)=O)NC(=O)[C@H](CCC(N)=O)NC1=O [Example 42] (GYIQNE[Sar][Dap]G-NH2; lactam N-6) | 1 |  |  |  | 119 | 
CC[C@H](C)[C@@H]1NC(=O)[C@H](Cc2ccc(O)cc2)NC(=O)CN(C)C(=O)CC[C@@H](C(=O)N2CCC[C@H]2C(=O)N[C@@H](CC(C)C)C(=O)NCC(N)=O)NC(=O)[C@H](CC(N)=O)NC(=O)[C@H](CCC(N)=O)NC1=O [Example 12] ([Sar]YIQNEPLG-NH2; lactam N-6) | 48 | 82 |  |  |  | 
